Data taken from PMC6718736, “Validation of in vitro methods for human cytochrome P450 enzyme induction: Outcome of a multi-laboratory study” (Toxicology in Vitro, 2019).
Like-named read-outs stand apart in the source and are kept apart here.

Experiments:
[1] = system: CYP1A2; experiment: CYP1A2 enzyme induction assay in cryopreserved HepaRG cells (phenacetin probe, LC/MS); assay type: in vitro ADME, human; details: for F2: in vitro concentration producing 2-fold induction; for Prediction in vivo inducer: Cmax/F2 >0.5 criterion; for Assigned classification CYP1A2: HepaRG; on Assigned classification CYP1A2: key: 1=Positive=inducer; 0=Negative=non-inducer
[2] = system: CYP2B6; experiment: CYP2B6 enzyme induction assay in cryopreserved HepaRG cells (bupropion probe, LC/MS); assay type: in vitro ADME, human; details: for Prediction in vivo inducer: Cmax/F2 >0.5 criterion; for Assigned classification CYP2B6: HepaRG; on Assigned classification CYP2B6: key: 1=Positive=inducer; 0=Negative=non-inducer
[3] = system: CYP3A4; experiment: CYP3A4 enzyme induction assay in cryopreserved HepaRG cells (midazolam probe, LC/MS); assay type: in vitro ADME, human; details: for Assigned classification CYP3A4: HepaRG; on Assigned classification CYP3A4: key: 1=Positive=inducer; 0=Negative=non-inducer
[4] = system: CYP2B6; experiment: CYP2B6 enzyme induction assay in cryopreserved primary human hepatocytes (PHH); assay type: in vitro ADME; details: for Assigned classification CYP2B6: PHH;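 on Assigned classification CYP2B6: code 1 means positive inducer and 0 means non-inducer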
[5] = system: CYP1A2; details: cited from earlier work; for Induction in vivo: CYP1A2, human, ref Table 1; for CYP induction in vivo literature reference: CYP1A2: human in vivo, CYP named without remark = induced, ref references in the cell, Washington University database, Hoffmann et al. (2014), Pelkonen et al. (2008), Hukkanen et al. (2012); for CYP1A2 induction in vivo: human, ref Andersson, 1996
[6] = cited from earlier work
[7] = system: CYP; details: cited from earlier work; for CYP induction in vitro (human hepatocytes): CYP isoforms induced, ref Abadie et al. (2009), Richert et al. (2010), Preissner et al. (2010), Hoffmann et al. (2014)
[8] = system: CYP3A4; details: cited from earlier work; for CYP induction in vivo literature reference: CYP3A4: human in vivo, CYP named without remark = induced, ref references in the cell, Washington University database, Hoffmann et al. (2014), Pelkonen et al. (2008), Hukkanen et al. (2012)
[9] = system: CYP3A4; experiment: CYP3A4 enzyme induction assay in cryopreserved primary human hepatocytes (PHH); details: for Assigned classification CYP3A4: PHH
[10] = system: CYP1A2; experiment: CYP1A2 enzyme induction assay in cryopreserved primary human hepatocytes (PHH); assay type: in vitro ADME; details: for Prediction in vivo inducer: Cmax/F2 >0.5 criterion; for Assigned classification CYP1A2: PHH;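 on Assigned classification CYP1A2: code 1 means positive inducer and 0 means non-inducer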
[11] = human in vivo plasma concentration, normal dose
[12] = human in vivo, normal dose (Table 10)

## O=C1C(CC[S+]([O-])c2ccccc2)C(=O)N(c2ccccc2)N1c1ccccc1 (stereo not shown) [Sulfinpyrazone]
[1]; CYP1A2, HepaRG cells
  F2: 11 µM
[2]; CYP2B6, HepaRG cells, in vitro concentration producing 2-fold induction
  F2: 11.0 to 33.0 µM
[3]; CYP3A4, HepaRG cells
  F2: 11 µM
[4]; CYP2B6, PHH
  F2: 33 µM
[5]
  Induction in vivo: Yes
  CYP induction in vivo literature reference: CYP1A2: CYP1A2
[6]; [11]
  Cmax: 45 µM
[6]; [12]
  Cmax: 45 µM
[7]; CYP2B6, ref Faucette et al., 2004
  CYP2B6 induction in human hepatocytes: demonstrated
[7]
  CYP induction in vitro (human hepatocytes): CYP1A2, CYP2B6, CYP3A4
[8]
  CYP induction in vivo literature reference: CYP3A4: CYP3A4
[9]; CYP3A4, PHH
  F2: 3.66 µM

## COc1ccc2[nH]c([S+]([O-])Cc3ncc(C)c(OC)c3C)nc2c1 (stereo not shown) [Omeprazole]
[1]; CYP1A2, HepaRG cells
  Prediction in vivo inducer: No
  F2: 12.9 µM
[1]; CYP1A2, HepaRG cells, listed as omeprazole
  Prediction in vivo inducer: non-inducer
[1]; CYP1A2, HepaRG cells, positive in one batch in each of the three laboratories
  Induction in vitro: Yes
[1]; Lab 1, batch 20
  Assigned classification CYP1A2: 1
[1]; Lab 1, batch 35
  Assigned classification CYP1A2: 1
[1]; Lab 1, batch 36
  Assigned classification CYP1A2: 1
[1]; Lab 2, batch 20
  Assigned classification CYP1A2: 1
[1]; Lab 2, batch 35
  Assigned classification CYP1A2: 1
[1]; Lab 2, batch 36
  Assigned classification CYP1A2: 1
[1]; Lab 3, batch 20
  Assigned classification CYP1A2: 1
[1]; Lab 3, batch 35
  Assigned classification CYP1A2: 1
[1]; Lab 3, batch 36
  Assigned classification CYP1A2: 1
[2]; CYP2B6, HepaRG cells
  Prediction in vivo inducer: No
[2]; CYP2B6, HepaRG cells, listed as omeprazole
  Prediction in vivo inducer: predicted as a non-inducer
[2]; CYP2B6, HepaRG cells, positive in one batch in each of the three laboratories
  Induction in vitro: No
[2]; Lab 1, batch 20
  Assigned classification CYP2B6: 0
[2]; Lab 1, batch 35
  Assigned classification CYP2B6: 0
[2]; Lab 1, batch 36
  Assigned classification CYP2B6: 0
[2]; Lab 2, batch 20
  Assigned classification CYP2B6: 0
[2]; Lab 2, batch 35
  Assigned classification CYP2B6: 0
[2]; Lab 2, batch 36
  Assigned classification CYP2B6: 1
[2]; Lab 3, batch 20
  Assigned classification CYP2B6: 1
[2]; Lab 3, batch 35
  Assigned classification CYP2B6: 0
[2]; Lab 3, batch 36
  Assigned classification CYP2B6: 0
[3]; CYP3A4, HepaRG cells
  Induction in vitro: No
  Prediction in vivo inducer: No
[3]; CYP3A4, HepaRG cells, Cmax/F2 >0.5 criterion
  Prediction in vivo inducer: non-inducer
[3]; Lab 1, batch 20
  Assigned classification CYP3A4: 0
[3]; Lab 1, batch 35
  Assigned classification CYP3A4: 0
[3]; Lab 1, batch 36
  Assigned classification CYP3A4: 0
[3]; Lab 2, batch 20
  Assigned classification CYP3A4: 0
[3]; Lab 2, batch 35
  Assigned classification CYP3A4: 0
[3]; Lab 2, batch 36
  Assigned classification CYP3A4: 0
[3]; Lab 3, batch 20
  Assigned classification CYP3A4: 0
[3]; Lab 3, batch 35
  Assigned classification CYP3A4: 0
[3]; Lab 3, batch 36
  Assigned classification CYP3A4: 0
[10]; CYP1A2, PHH
  Prediction in vivo inducer: No
[10]; CYP1A2, PHH, listed as omeprazole
  Prediction in vivo inducer: non-inducer
[10]; CYP1A2, PHH, in vitro concentration producing 2-fold induction
  F2: 38.6 to 118 µM
[10]; CYP1A2, PHH, positive in one donor in each of the three laboratories
  Induction in vitro: Yes
[10]; Lab 1, batch 0 6 A
  Assigned classification CYP1A2: 1
[10]; Lab 1, batch 4 0 8
  Assigned classification CYP1A2: 1
[10]; Lab 1, batch 8 0 8
  Assigned classification CYP1A2: 1
[10]; Lab 2, batch 0 6 A
  Assigned classification CYP1A2: 1
[10]; Lab 2, batch 4 0 8
  Assigned classification CYP1A2: 1
[10]; Lab 2, batch 8 0 8
  Assigned classification CYP1A2: 1
[10]; Lab 3, batch 0 6 A
  Assigned classification CYP1A2: 1
[10]; Lab 3, batch 4 0 8
  Assigned classification CYP1A2: 1
[10]; Lab 3, batch 8 0 8
  Assigned classification CYP1A2: 1
[4]; CYP2B6, PHH
  F2: 38.6 to 116 µM
  Induction in vitro: Yes
  Prediction in vivo inducer: No
[4]; CYP2B6, PHH, Cmax/F2 >0.5 criterion
  Prediction in vivo inducer: non-inducer
[4]; Lab 1, batch 0 6 A
  Assigned classification CYP2B6: 1
[4]; Lab 1, batch 4 0 8
  Assigned classification CYP2B6: 1
[4]; Lab 1, batch 8 0 8
  Assigned classification CYP2B6: 0
[4]; Lab 2, batch 0 6 A
  Assigned classification CYP2B6: 1
[4]; Lab 2, batch 4 0 8
  Assigned classification CYP2B6: 0
[4]; Lab 2, batch 8 0 8
  Assigned classification CYP2B6: 0
[4]; Lab 3, batch 0 6 A
  Assigned classification CYP2B6: 1
[4]; Lab 3, batch 4 0 8
  Assigned classification CYP2B6: 1
[4]; Lab 3, batch 8 0 8
  Assigned classification CYP2B6: 1
[5]
  Induction in vivo: No
  CYP induction in vivo literature reference: CYP1A2: NOT induced at clinically used doses
[5]; 120 mg doses or poor metabolizers (40 mg dose)
  CYP1A2 induction in vivo: weak inducer
[5]; normal doses (20-40 mg)
  CYP1A2 induction in vivo: not a CYP1A2 inducer
[6]; [11]
  Cmax: 0.68 to 3.5 µM
[6]; [12]
  Cmax: 0.68 to 3.5 µM
[7]
  CYP induction in vitro (human hepatocytes): CYP1A2, CYP2B6, CYP3A4
[8]; CYP3A4, human in vivo reference classification (Table 11)
  Induction in vivo: No
[8]
  CYP induction in vivo literature reference: CYP3A4: NOT induced
[9]; CYP3A4, PHH
  F2: 38.7 to 117 µM
  Induction in vitro: Yes
  Prediction in vivo inducer: No
[9]; CYP3A4, PHH, Cmax/F2 >0.5 criterion
  Prediction in vivo inducer: non-inducer
[9]; Lab 1, batch 0 6 A
  Assigned classification CYP3A4: 1
[9]; Lab 1, batch 4 0 8
  Assigned classification CYP3A4: 0
[9]; Lab 1, batch 8 0 8
  Assigned classification CYP3A4: 1
[9]; Lab 2, batch 0 6 A
  Assigned classification CYP3A4: 1
[9]; Lab 2, batch 4 0 8
  Assigned classification CYP3A4: 0
[9]; Lab 2, batch 8 0 8
  Assigned classification CYP3A4: 0
[9]; Lab 3, batch 0 6 A
  Assigned classification CYP3A4: 1
[9]; Lab 3, batch 4 0 8
  Assigned classification CYP3A4: 0
[9]; Lab 3, batch 8 0 8
  Assigned classification CYP3A4: 1
